Measurements as given in US11352382B2, “Mito-lonidamine, compositions and methods of use” (THE MEDICAL COLLEGE OF WISCONSIN, INC., priority 2018, dated 2022).
Entries after “also recorded” stand apart in the source; their conditions may differ.

Columns and labels:
mitochondrial Complex I = experiment: Activity of mitochondrial complexes in permeabilized tumor cells (OCR), pancreatic cancer cells; format: cell-based, human
Experimental: To investigate the mechanism of mitochondrial inhibition, we measured the activity of mitochondrial complexes in tumor cells. The cell membrane was permeabilized, and OCR was measured upon addition of substrates and inhibitors of mitochondrial complexes I-II.

cytosolic Prx1 = experiment: Redox status of cytosolic peroxiredoxin; format: cell-based, human; settings: lung cancer cells
Text: (§1) Inhibition of mitochondrial respiration results in increased O2^⋅− and other oxidants.

[1] = test system: H2030, PC9, H460, H2030BrM3, PC9BrM3 cells; experiment: Cell viability of lung cancer and brain metastatic lines (Calcein-AM); format: cell-based, human
Text: Mito-LON treatment causes cell death of human lung cancer and lung cancer-derived brain metastatic cell lines. Paradoxical roles for autophagy in cancer have been reported for the role of autophagy in cancer. Under conditions of nutrient deprivation autophagy induction can promote cell survival; however, in response to other environmental stressors including ROS generation, autophagy can promote cancer cell death. We treated lung cancer lines (H2030, PC9, H460) and lung cancer-derived brain metastatic lines (H2030BrM3, PC9BrM3) with Mito-LON (1.6, 2.0 or 2.4 μM) and measured cell viability at 24 and 48 h.

[2] = test system: H2030BrM3 orthotopic lung adenocarcinoma in nude mice; experiment: Orthotopic lung tumor mouse model; format: in vivo
Experimental: Inhibitory effects of Mito-LON in an orthotopic lung tumor mouse model. We conducted a pilot study using an orthotopic model of lung adenocarcinoma (H2030BrM3 cells) in nude mice. Cells (1×10^6 cells/50 μg of growth factor-reduced Matrigel in 50 μL of RPMI-1640) were injected into the lung. One week after injection, mice were treated with the same dose of LON or Mito-LON (7.5 μmol/kg), or vehicle (corn oil), by oral gavage 5 times/wk for 3 wks.

H2030BrM3 cells [3] = experiment: Cell proliferation, IncuCyte Live-Cell Imaging Analyzer (cell confluence); format: cell-based; settings: Homo sapiens, H2030-BrM3, read-out: IC50, cell proliferation
Experimental: In contrast, Mito-LON (1.2-2.7 μM) targets mitochondrial complexes I and II (FIG. 9); its mitochondrial effects are supported by the compartment-selective oxidation of mitochondrial Prx3 (FIG. 13). The anti-proliferative effects of Mito-LON and LON were compared in H2030BrM3 cells.

H2030BrM3 cells [4] = experiment: Cellular ROS production, HPLC-based analysis of hydroethidine (HE) oxidation; format: cell-based, human; settings: for ROS generation in lung cancer cells: concentration not given
Text: as §1

mitochondrial complex II = target: T1, mitochondrial complex II (Homo sapiens, UniProt O14521+P21912+P31040+Q99643); experiment: Mitochondrial complex II activity (OCR) in permeabilized H2030BrM3 cells after 24 h pretreatment; format: cell-based
T1 construct: we measured the activity of mitochondrial complexes in H2030BrM3 cells (NSCLC cell line); endogenous in cells; host or cells: H2030BrM3
Text: (§2) LON and Mito-LON inhibit mitochondrial complex I activity. Mito-LON inhibited cellular respiration (oxygen consumption rate, OCR) at >100-fold lower concentration than LON in intact lung cancer cells (FIG. 9). Both basal respiration and the response to mitochondrial stressors (oligomycin, dinitrophenol) were diminished by Mito-LON (not shown). To investigate the mechanism of mitochondrial inhibition, we measured the activity of mitochondrial complexes in H2030BrM3 cells (NSCLC cell line). The cell membrane was permeabilized, and OCR was measured upon addition of substrates and inhibitors of mitochondrial complexes I-IV (FIG. 9A). These studies established the optimal use of permeabilized cells for complex activity assays.^54 Next, cells were pretreated with LON and Mito-LON for 24 h and experiments performed as in FIG. 9A. […] We hypothesize that inhibition of mitochondrial complexes I and II is the predominant mechanism for antiproliferative effects of Mito-LON on lung cancer cells.

[5] = test system: mitochondrial complexes I and II; experiment: Inhibition of mitochondrial complexes I and II, stated jointly; format: cell-based, human; settings: for fold potency compared with LON/LDN, complexes I and II: H2030BrM3 lung cancer cells
Text: as §2

[6] = test system: luciferase-expressing H2030BrM3 cells in Nod/Scid mice; experiment: Lung cancer brain metastasis model, intra-cardiac injection, bioluminescence; format: in vivo, mouse; settings: 7.5 μmol/kg oral gavage
Experimental: Mito-LON inhibits lung cancer brain metastasis in Nod/Scid mice. Preliminary experiments assessed the effect of Mito-LON, and its enhanced potency vs. LON, on brain metastasis in Nod/Scid mice in which luciferase-expressing H2030BrM3 cells were injected via intra-cardiac insertion. To ensure the accuracy of injection and precision in the quantity of the cells injected, we used high-resolution echocardiography to guide the needle into the left ventricle. In FIG. 25A, the needle's positioning is clearly discernable. Mice were imaged for firefly luciferase expression (150 μg/g D-luciferin) using an IVIS 100 imaging system at multiple time points post-injection. Regions of interest were defined manually over the brain, and LivingImage and Igor image analysis software were used to determine total photon flux. One day after engrafting the H2030BrM3 cells in arterial circulation (FIG. 19A), LON or Mito-LON (7.5 μmol/kg each) were administered by oral gavage, tumor growth was monitored by bioluminescence, and ex vivo GFP expression and H&E staining were determined at the end point. H2030BrM3 cells rapidly colonized in the cerebrum and cerebellum (FIG. 25B).

[7] = test system: VC-induced lung tumors in A/J mice; experiment: Vinyl carbamate (VC)-induced lung carcinogenesis, post-initiation protocol; format: in vivo, mouse
Text: Preventive efficacy of Mito-LON on vinyl carbamate (VC)-Induced lung carcinogenesis using a post-initiation protocol. We evaluated the preventive efficacy of Mito-LON on the development of VC-induced lung tumors in A/J mice. A post-initiation protocol was used in this study by which administration of Mito-LON was initiated one week after VC. Mito-LON was given via oral gavage at a dose of 15 μmol/kg 5 days/week for 20 weeks.

[8] = 7.5 μmol/kg oral gavage 5 times/wk for 3 wks, nude mice

T1 sequence (P31040 43-664): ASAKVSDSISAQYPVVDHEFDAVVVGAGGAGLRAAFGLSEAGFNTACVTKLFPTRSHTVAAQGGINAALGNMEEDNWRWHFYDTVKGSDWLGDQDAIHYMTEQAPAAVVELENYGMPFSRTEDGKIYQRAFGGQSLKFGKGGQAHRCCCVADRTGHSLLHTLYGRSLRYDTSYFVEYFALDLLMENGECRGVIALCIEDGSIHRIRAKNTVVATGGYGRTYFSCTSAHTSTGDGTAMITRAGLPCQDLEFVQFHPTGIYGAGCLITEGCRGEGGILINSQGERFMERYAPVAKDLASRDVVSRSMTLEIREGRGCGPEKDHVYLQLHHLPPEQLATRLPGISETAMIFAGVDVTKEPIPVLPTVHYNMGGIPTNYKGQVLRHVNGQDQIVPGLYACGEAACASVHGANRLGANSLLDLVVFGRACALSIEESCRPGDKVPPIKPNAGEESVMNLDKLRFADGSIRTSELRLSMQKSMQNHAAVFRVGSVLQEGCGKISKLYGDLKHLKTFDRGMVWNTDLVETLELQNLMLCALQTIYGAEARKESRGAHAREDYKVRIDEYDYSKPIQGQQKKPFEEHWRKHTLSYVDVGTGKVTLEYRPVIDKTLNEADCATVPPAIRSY
T1 sequence (P21912 29-280): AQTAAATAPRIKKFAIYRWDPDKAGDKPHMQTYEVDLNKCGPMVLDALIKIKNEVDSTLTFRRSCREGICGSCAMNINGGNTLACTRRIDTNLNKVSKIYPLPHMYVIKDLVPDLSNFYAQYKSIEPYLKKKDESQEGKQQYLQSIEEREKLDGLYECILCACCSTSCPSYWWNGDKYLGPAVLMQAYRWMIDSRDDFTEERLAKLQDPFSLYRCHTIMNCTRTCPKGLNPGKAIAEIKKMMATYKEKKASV
T1 sequence (Q99643 30-169): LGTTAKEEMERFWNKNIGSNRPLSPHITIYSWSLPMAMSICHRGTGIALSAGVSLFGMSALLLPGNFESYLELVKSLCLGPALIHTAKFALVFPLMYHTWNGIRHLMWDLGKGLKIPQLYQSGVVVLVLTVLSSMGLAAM
T1 sequence (O14521 57-159): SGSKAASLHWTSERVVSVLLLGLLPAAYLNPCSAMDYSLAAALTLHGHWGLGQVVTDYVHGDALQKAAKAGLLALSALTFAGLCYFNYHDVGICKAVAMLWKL

Which “Complex I versus Complex II inhibition” value (mitochondrial Complex I; FIG. 7) does the source give for O=C(NCCCCCCCCCC[P+](c1ccccc1)(c1ccccc1)c1ccccc1)c1nn(Cc2ccc(Cl)cc2Cl)c2ccccc12 [Mito-LON, Mito10-lonidamine] here?
Its value is “inhibits Complex I more potently than Complex II”.

And the “fold more potent than lonidamine in inhibiting Complex I activity of tumor cells” value (mitochondrial Complex I; FIGS. 7 and 8)?
Its value is over 500 fold.

What about the “effect on cytosolic Prx1” value (cytosolic Prx1) of the same compound?
The value was “without significant effect”.

What about the cytotoxicity at 2 µM ([1]; Homo sapiens, NCI-H2030, H2030 cells, 2.0 μM, 48 h, Calcein-AM, read-out: reduction of cell viability) of the same compound?
Its cytotoxicity at 2 µM is about 50%.

And the “LD50, cell viability” value ([1]; lung cancer and brain metastatic lines, 24 and 48 h)?
The value was 2.0 µM.

What about the “reduction of lymph node metastasis” value [2, 8] of the same compound?
The value was over 50%.

And the “reduction of tumor progression” value [2, 8]?
The value was over 70%.

And the “liver histopathology (H&E sections)” value ([2]; 7.5 μmol/kg oral gavage, 3 wks)?
Its value is “no histopathologic signs of toxicity”.

What about the “effective dose (ED)” value ([2]; designated from preliminary data (FIGS. 24 & 25)) of the same compound?
The value was 7.5 µmol/kg.

And the IC50 (H2030BrM3 cells [3])?
Its IC50 is 700 nM.

What about the “intracellular levels of 2-OH-E+ (superoxide-specific product of HE oxidation)” value (H2030BrM3 cells [4]; 0.2 μM, H2030BrM3 cells) of the same compound?
Its value is “increase”.

What about the “formation of diethidium (E+-E+)” value (H2030BrM3 cells [4]; H2030BrM3 cells) of the same compound?
The value was “strongly induced”.

And the “ROS generation in lung cancer cells” value (H2030BrM3 cells [4])?
Its value is “stimulates ROS generation; also recorded: induced ROS generation in mitochondria; also recorded: enhanced the formation of 2-hydroxyethidium; also recorded: increased ROS generation”.

What about the “ROS generation in lung cancer cells” value (H2030BrM3 cells [4]; listed as Mito-LDN) of the same compound?
The value was “stimulates ROS generation”.

What about the “fold more potent than LON for complex II” value (mitochondrial complex II; 24 h pretreatment, FIG. 9B) of the same compound?
Its value is 144 fold.

What about the Ki (mitochondrial complex II; FIG. 9) of the same compound?
The Ki was 2700 nM.

What about the IC50 (mitochondrial complex II; H2030BrM3 lung cancer cells, FIG. 9, read-out: IC50, respiratory complex II) of the same compound?
The IC50 was 2700 nM.

What about the “concentration that targets mitochondrial complexes I and II” value ([5]; FIG. 9) of the same compound?
The value was 1.2 to 2.7 µM.

What about the “fold potency compared with LON/LDN, complexes I and II” value ([5]; FIG. 9) of the same compound?
The value was “over 100 fold”.

And the “fold potency compared with LON/LDN, complexes I and II” value ([5]; FIG. 9, listed as Mito-LDN)?
Its value is “greater than 100 fold”.

And the IC50 ([5]; read-out: IC50, inhibition of complex I and II, pretreatment of H2030BrM3 cells)?
The IC50 was about 2000 nM.

And the “inhibition of brain metastasis of lung cancer cells” value [6]?
The value was “significant efficacy in inhibiting brain metastasis”.

What about the “inhibition of VC-induced lung tumor development, total tumor load” value ([7]; 15 μmol/kg oral gavage 5 days/week for 20 weeks, A/J mice) of the same compound?
Its value is 62%.

And the body weight changes ([7]; 15 μmol/kg oral gavage, 20 weeks)?
Its body weight changes is “did not observe any body weight changes”.
